Assays:
CRPC tumors = experiment: Aggarwal cluster designation and Labrecque classification of progression tumors (lineage plasticity); set-up: species or system human; details: 3/21 progression tumors (Aggarwal cluster 2, DNPC by Labrecque)
Method: The unsupervised analysis from Aggarwal, et al. 25 identified five clusters using 119 samples. That study identified 528 genes that were the most differentially expressed between the clusters. Using that gene list, cluster assignments for new samples included in this matched biopsy cohort were determined without replicating the unsupervised analysis. First, the sample batch effect between the samples from the previous study and those from the current study was addressed with exponential normalization on the expression data of all samples—old and new. Exponential normalization is a per-sample operation that fits the expression of all genes to a unit exponential distribution. […]
To determine the Labrecque classification, a 26 gene signature used previously to define five phenotypic categories of CRPC 24 was applied: AR-high prostate cancer (ARPC), amphicrine prostate cancer, AR-low prostate cancer (ARLPC), double-negative prostate cancer (DNPC), and neuroendocrine prostate cancer (NEPC) 24. […] Samples were assigned to the phenotype groups by clustering using Euclidean distance calculated by the dist function and visualization using classical multidimensional scaling (MDS) calculated with the cmdscale function in R using the log2(TPM+1) transformed expression profiles of the remaining 25 genes.

[1] = tested on: CRPC tumor biopsy transcriptome; experiment: RNA-sequencing differential gene expression (DESeq2), progression versus baseline in converters; set-up: species or system human; details: progression vs baseline samples from the three converters
Method: (§1) Methods for tissue collection have been described previously 48.
Core biopsy samples were flash frozen in Optical Cutting Temperature (OCT) for gene expression analysis. Laser capture microdissection was performed on frozen sections to enrich for tumor content 49. Total RNA was isolated (Stratagene Absolutely RNA Nano Prep) (RIN>8) and amplified using NuGEN Ovation RNA seq System V2. Libraries were generated using NuGEN Ovation Ultralow System V2 for Illumina sequencing. RNA seq was performed on the Illumina NextSeq 500, PE75 with at least 100M read pairs. The raw fastq files were first quality checked using FastQC (version 0.11.8) software (http://www.bioinformatics.bbsrc.ac.uk/projects/fastqc/). Fastq files were aligned to hg38 human reference genome and per-gene counts and transcripts per million (TPM) quantified by RSEM 50 (version 1.3.1) based on the gene annotation gencode.v28.annotation.gtf.
Differential expression gene, pathway, and master regulator analysis Differential gene expression analysis was performed using DESeq2 (version 1.22.2). Gene expression differences were considered significant if passing the following criteria: adjusted P-value <0.05, absolute fold change >1.5. For the converter vs non-converter baseline sample comparison, we used the adjusted P-value <0.1. […]

[2] = tested on: metastatic, castration-resistant prostate cancer; experiment: Enzalutamide treatment of WCDT patients with matched biopsies: PSA response and time on treatment; type: in vivo, human; set-up: PSA Change at 12 weeks: unit not given here
Method: as §1
By examining the Stand Up to Cancer Foundation/Prostate Cancer Foundation West Coast Dream Team (WCDT) prospective cohort, 21 patients with CRPC who underwent a metastatic tumor biopsy prior to enza and a repeat biopsy at the time of progression and whose tumor cells underwent RNA-sequencing after laser capture microdissection were identified. All progression biopsies were performed prior to discontinuing enza, enabling one to identify resistance mechanisms induced by continued enza treatment.
Bone was the most common site for both pre-treatment and progression biopsies. Eighteen of 21 patients had the same tissue type biopsied at progression. In eight patients, the exact same lesion was biopsied at baseline and progression (FIG. 1B, Table 3). The median time on enza treatment was 226 days.

**Q.** For `CNC(=O)c1ccc(N2C(=S)N(c3ccc(C#N)c(C(F)(F)F)c3)C(=O)C2(C)C)cc1F` [enzalutamide], which “enza-induced lineage plasticity and conversion to an AR-independent program, frequency of tumors” value (CRPC tumors) is on record?
**A.** 14%

**Q.** What about the “expression of AR, AR target genes (KLK2, KLK3, TMPRSS2) and HOXB13” value [1] of the same molecule?
**A.** markedly decreased expression

**Q.** And the “median time on enza treatment” value ([2]; 21 patients)?
**A.** 226 days

**Q.** What about the “Median time on enzalutamide, days (SD)” value ([2]; Table 2, n = 21 patients) of the same molecule?
**A.** 261 days

**Q.** What about the “50% PSA response to enzalutamide” value ([2]; number of patients, n = 21) of the same molecule?
**A.** 7

**Q.** And the “PSA Change at 12 weeks” value ([2]; patient DTB_024)?
**A.** 75.05

**Q.** What about the “PSA Change at 12 weeks” value ([2]; patient DTB_060) of the same molecule?
**A.** −20.41

**Q.** And the “PSA Change at 12 weeks” value ([2]; patient DTB_063)?
**A.** −74.64

**Q.** And the “PSA Change at 12 weeks” value ([2]; patient DTB_073)?
**A.** 156.81

**Q.** And the “PSA Change at 12 weeks” value ([2]; patient DTB_080)?
**A.** −28.48

**Q.** What about the “PSA Change at 12 weeks” value ([2]; patient DTB_089) of the same molecule?
**A.** 181.18

**Q.** And the “PSA Change at 12 weeks” value ([2]; patient DTB_098)?
**A.** −83.74

**Q.** And the “PSA Change at 12 weeks” value ([2]; patient DTB_102)?
**A.** −93.02

**Q.** What about the “PSA Change at 12 weeks” value ([2]; patient DTB_111) of the same molecule?
**A.** 113.99

**Q.** What about the “PSA Change at 12 weeks” value ([2]; patient DTB_127) of the same molecule?
**A.** 169.29

**Q.** And the “PSA Change at 12 weeks” value ([2]; patient DTB_135)?
**A.** 164.26

**Q.** What about the “PSA Change at 12 weeks” value ([2]; patient DTB_137) of the same molecule?
**A.** −10.85

**Q.** And the “PSA Change at 12 weeks” value ([2]; patient DTB_141)?
**A.** −81.04

**Q.** And the “PSA Change at 12 weeks” value ([2]; patient DTB_149)?
**A.** −80.29

**Q.** What about the “PSA Change at 12 weeks” value ([2]; patient DTB_167) of the same molecule?
**A.** −88.38

**Q.** What about the “PSA Change at 12 weeks” value ([2]; patient DTB_176) of the same molecule?
**A.** −64.76

**Q.** And the “PSA Change at 12 weeks” value ([2]; patient DTB_194)?
**A.** 100.36

**Q.** What about the “PSA Change at 12 weeks” value ([2]; patient DTB_210) of the same molecule?
**A.** −83.36

**Q.** And the “PSA Change at 12 weeks” value ([2]; patient DTB_232)?
**A.** −0.55

**Q.** And the “PSA Change at 12 weeks” value ([2]; patient DTB_265)?
**A.** 5.84

From patent US20240009172A1, “COMPOSTIONS AND METHODS FOR TREATING PROSTATE CANCER” (The Regents of the University of Michigan, priority 2022, published 2024)
